Earlier results on 1 compound are cited in patent US20240207481A1, “KIT OF GEL-FORMING SOLUTIONS INTENDED FOR PREPARATION OF HYDROGEL BASED ON COVALENTLY CROSSLINKED HYDROXYPHENYL DERIVATIVE OF HYALURONAN FOR PREVENTION OF POSTOPERATIVE COMPLICATIONS RELATED TO FORMATION OF COLORECTAL ANASTOMOSIS, USE OF KIT, METHOD OF PREPARATION OF HYDROGEL AND USE THREREOF” (CONTIPRO A.S., priority 2020, published 2024).

`Oc1cc(Cl)ccc1Oc1ccc(Cl)cc1Cl` [Triclosan, 2,4,4′-trichloro-2′-hydroxydiphenyl ether]: the solubility in water result is “poorly soluble”. Further, the “solubility in polar organic solvents” value (ethanol, chloroform, isopropanol) is given as “well soluble”.
